Laboratory results published in ChEMBL document CHEMBL3585328, “Colloidal and antibacterial properties of novel triple-headed, double-tailed amphiphiles: exploring structure-activity relationships and synergistic mixtures” (Bioorg Med Chem, 2015).
Converted amounts (≈) assume the structure as drawn. The source made the active and inactive calls. No cut-off for these calls is given here.

Legend:
[1] = Critical aggregation concentration by at 37 degC isothermal titration calorimetry method; format: ADME
[2] = system: Pseudomonas aeruginosa; test: Antibacterial activity against Pseudomonas aeruginosa ATCC 27853 assessed as inhibition of bacterial growth incubated for 72 hrs by CLSI based method; format: functional; conditions: ATCC 27853, 72 h
[3] = system: Staphylococcus aureus; test: Bactericidal activity against Staphylococcus aureus subsp. aureus ATCC 29213 assessed as inhibition of bacterial growth incubated for 72 hrs followed by culture growth in Todd-Hewitt agar medium and incubated for 24 hrs at 37 degC; format: functional, organism-based
[4] = system: Staphylococcus aureus; test: Antibacterial activity against Staphylococcus aureus subsp. aureus ATCC 29213 assessed as inhibition of bacterial growth incubated for 72 hrs by CLSI based method; format: functional; conditions: ATCC 29213, 72 h
[5] = system: Bacillus cereus; test: Antibacterial activity against Bacillus cereus assessed as inhibition of bacterial growth incubated for 72 hrs by CLSI based method; format: functional
[6] = system: Pseudomonas aeruginosa; test: Bactericidal activity against Pseudomonas aeruginosa ATCC 27853 assessed as inhibition of bacterial growth incubated for 72 hrs followed by culture growth in Todd-Hewitt agar medium and incubated for 24 hrs at 37 degC; format: functional, organism-based
[7] = system: Escherichia coli; test: Bactericidal activity against Escherichia coli ATCC 25922 assessed as inhibition of bacterial growth incubated for 72 hrs followed by culture growth in Todd-Hewitt agar medium and incubated for 24 hrs at 37 degC; format: functional, organism-based
[8] = system: Bacillus cereus; test: Bactericidal activity against Bacillus cereus assessed as inhibition of bacterial growth incubated for 72 hrs followed by culture growth in Todd-Hewitt agar medium and incubated for 24 hrs at 37 degC; format: functional, organism-based
[9] = system: Enterococcus faecalis; test: Antibacterial activity against Enterococcus faecalis ATCC 29212 assessed as inhibition of bacterial growth incubated for 72 hrs by CLSI based method; format: functional; conditions: ATCC 29212, 72 h
[10] = system: Enterococcus faecalis; test: Bactericidal activity against Enterococcus faecalis ATCC 29212 assessed as inhibition of bacterial growth incubated for 72 hrs followed by culture growth in Todd-Hewitt agar medium and incubated for 24 hrs at 37 degC; format: functional, organism-based
[11] = system: Streptococcus agalactiae; test: Bactericidal activity against Streptococcus agalactiae J48 assessed as inhibition of bacterial growth incubated for 72 hrs followed by culture growth in Todd-Hewitt agar medium and incubated for 24 hrs at 37 degC; format: functional, organism-based
[12] = system: Escherichia coli; test: Antibacterial activity against Escherichia coli ATCC 25922 assessed as inhibition of bacterial growth incubated for 72 hrs by CLSI based method; format: functional; conditions: ATCC 25922, 72 h
[13] = system: Streptococcus agalactiae; test: Antibacterial activity against Streptococcus agalactiae J48 assessed as inhibition of bacterial growth incubated for 72 hrs by CLSI based method; format: functional; conditions: J48, 72 h

Row | SMILES | CAC [1] | MIC [2] | Activity [3] | MIC [4] | MIC [5] | Activity [6] | Activity [7] | Activity [8] | MIC [9] | Activity [10] | Activity [11] | MIC [12] | MIC [13]
1 | CCCCCCCCCCCC[N+](C)(C)Cc1cc(C[n+]2ccccc2)cc(C[N+](C)(C)CCCCCCCCCCCC)c1.[Br-].[Br-].[Br-] | 2.4 mM | 8 µM | Active | 2 µM | 2 µM | Active | Active | Active | 2 µM | Active | Active | 4 µM | 1 µM
2 | CCCCCCCC[N+](C)(C)Cc1cc(C[N+](C)(C)C)cc(C[N+](C)(C)CCCCCCCC)c1 | – | > 250 µM | Active | > 250 µM | > 250 µM | Active | Active | Active | > 250 µM | Active | Active | > 250 µM | > 250 µM
3 | CCCCCCCCCCCC[N+](C)(C)Cc1cc(C[N+](C)(C)C)cc(C[N+](C)(C)CCCCCCCCCCCC)c1.[Br-].[Br-].[Br-] | 2.5 mM | 16 µM | Active | 2 µM | 2 µM | Active | Active | Active | 2 µM | Active | Active | 4 µM | 2 µM
4 | CCCCCCCCCCCCCCCC[N+](C)(C)Cc1cc(C[N+](C)(C)C)cc(C[N+](C)(C)CCCCCCCCCCCCCCCC)c1.[Br-].[Br-].[Br-] | 0.16 mM | > 250 µM | Active | 16 µM | 16 µM | Active | Active | Active | 32 µM | Active | Active | 63 µM | 8 µM
5 | CCCCCCCCCCCCCCCC[N+](C)(C)Cc1cc(C[n+]2ccccc2)cc(C[N+](C)(C)CCCCCCCCCCCCCCCC)c1.[Br-].[Br-].[Br-] | 0.18 mM | > 250 µM | Active | > 250 µM | > 250 µM | Active | Active | Active | > 250 µM | Active | Active | > 250 µM | > 250 µM
6 | CCCCCCCCCCCCCC[N+](C)(C)Cc1cc(C[n+]2ccccc2)cc(C[N+](C)(C)CCCCCCCCCCCCCC)c1.[Br-].[Br-].[Br-] | 0.6 mM | 63 µM | Active | 4 µM | 8 µM | Active | Active | Active | 4 µM | Active | Active | 16 µM | 4 µM
7 | CCCCCCCCCC[N+](C)(C)Cc1cc(C[n+]2ccccc2)cc(C[N+](C)(C)CCCCCCCCCC)c1.[Br-].[Br-].[Br-] | 14 mM | 63 µM | Active | 2 µM | 8 µM | Active | Active | Active | 8 µM | Active | Active | 16 µM | 8 µM
8 | CCCCCCCCCCCCCC[N+](C)(C)Cc1cc(C[N+](C)(C)C)cc(C[N+](C)(C)CCCCCCCCCCCCCC)c1.[Br-].[Br-].[Br-] | 0.61 mM | 125 µM | Active | 4 µM | 4 µM | Active | Active | Active | 4 µM | Active | Active | 8 µM | 2 µM
9 | CCCCCCCCCC[N+](C)(C)Cc1cc(C[N+](C)(C)C)cc(C[N+](C)(C)CCCCCCCCCC)c1.[Br-].[Br-].[Br-] | 12 mM | > 250 µM | Active | 16 µM | 8 µM | Active | Active | Active | 8 µM | Active | Active | 125 µM | 4 µM
10 | CCCCCCCC[N+](C)(C)Cc1cc(C[n+]2ccccc2)cc(C[N+](C)(C)CCCCCCCC)c1 | – | > 250 µM | Active | > 250 µM | > 250 µM | Active | Active | Active | > 250 µM | Active | Active | > 250 µM | > 250 µM
11 | NC[C@H]1O[C@H](O[C@H]2[C@H](O)[C@@H](O[C@H]3O[C@H](CO)[C@@H](O)[C@H](N)[C@H]3O)[C@H](N)C[C@@H]2N)[C@H](N)C[C@@H]1O [TOBRAMYCIN] | – | 6.4 µM (≈ 2.99 µg/mL) | – | – | – | – | – | – | – | – | – | – | –
